Laboratory results taken from patent EP0089635A2, “Phospholipid derivatives, process for preparation thereof and pharmaceutical composition of the same” (FUJISAWA PHARMACEUTICAL CO., LTD., priority 1982, dated 1983).

Columns and labels:
Type in all cases: in vivo, BALB/c mice
Fibrosarcoma Meth-A = test: Test Method A: antitumor effect on intradermally inoculated Meth-A tumor, intratumoral injection of test compound; conditions: 100 µg/mouse intratumorally once daily Day 1 to Day 4; for Tumor growth inhibition (%) *b: (1-T/C)x100 of mean tumor diameter on Day 21; for Mean tumor size (mm) *a: female BALB/c mice, 1 x 10^5 Meth-A cells intradermally, mean diameter of tumor on Day 21; for Ratio of tumor free mice *c: groups of six mice
Description: Fibrosarcoma Meth-A (hereinafter referred to as Meth-A) was successively transferred every 7 days into BALB/c mice by intraperitoneal inoculation of the ascites cells thereof and the Meth-A in the ascites cells as harvested 6 days after the inoculation was used as tumor cells.
Each of the BALB/c mice was inoculated intradermally with 1 x 10^5 Meth-A cells in 0.05 ml Hanks solution.
(§1) The control group was given with a vehicle alone in the same way.
The antitumor effectiveness of the test compound was estimated by tumor growth inhibition : (1-T/C)x100. • T : Mean diameter of the growing tumor of the medicated group on Day 21. • C : Mean diameter of the growing tumor of the control group on Day 21.

[1] = Test Method A: body weight of the treated mice; conditions: 100 µg/mouse intratumorally once daily Day 1 to Day 4; for Body weight of mice (g) Day 0 *d: initial day
Description: Groups of six female BALB/c mice, aged 12 weeks and weighing 19 - 21 g were used. Test compound was dissolved in 0.5% methylcellulose saline solution, and was intratumorally injected to each of the mice in doses of 100 µg/mouse once daily from Day 1 to Day 4 postimplant. Body weight was checked on initial day and Day 4.

Fibrosarcoma Meth A = test: Test Method B: survival of mice inoculated intrapleurally with Meth A, injection of test compound into pleural cavity; design: dose or concentration left out as unconfirmed; conditions: for Anti-tumor activity (%) *f: T/C x 100 of mean survival time, into pleural cavity three times; for Mean survival time: female BALB/c mice, Meth A cells intrapleurally, into pleural cavity three times (before 14 days, after 1 hour, after 3 days of tumor implantation)
Description: Groups of eight female BALB/c mice, aged 8-9 weeks and weighing 18.0-22.5 g were used.
Fibrosarcoma Meth A (hereinafter referred to as Meth A) was successively transferred every 7 days into BALB/c mice by intraperitoneal inoculation of the ascites cells thereof and the Meth A in the ascites cells as harvested 6 or 7 days after the inoculation was used as tumor cells.
Each of the BALB/c mice was inoculated intrapleurally with 5 x 10 Meth A cells in 0.1 ml Hanks solution.
Test compound was dissolved in phosphate buffer saline solution, and was injected into pleural cavity to each of the mice in doses of 100 pg/0.05 ml/mouse three times, i.e. before 14 days, after I hour and after 3 days of tumor implantation.
as §1
The antitumor activity of the test compound was estimated by comparing mean survival time of the two groups. • T : Mean survival time of the medicated group • C : Mean survival time of the control group

Row | SMILES | Tumor growth inhibition (%) *b (Fibrosarcoma Meth-A) [%] | Mean tumor size (mm) *a (Fibrosarcoma Meth-A) [mm] | Ratio of tumor free mice *c (Fibrosarcoma Meth-A) | Body weight of mice (g) Day 4 *e [1] [g] | Body weight of mice (g) Day 0 *d [1] [g] | Anti-tumor activity (%) *f (Fibrosarcoma Meth A) [%] | Mean survival time (Fibrosarcoma Meth A) [days]
1 | CCCCCCCCCCCCCCCCCCOCC(COP(=O)([O-])OCC[n+]1ccccc1)OC(=O)NC (racemic) [Example 1 - (4), (rac)-1-O-octadecyl-2-O-methylcarbamoyl-glycerol-3-[2-(1-pyridinio)ethyl]-phosphate] | 100 | 0 | 6/6 | 19.1 ± 1.68 | 18.3 ± 1.11 |  | 
2 | CCCCCCCCCCCCCCCCCCOCC(COP(=O)(O)OCCN1CCN(C)CC1)OC(N)=O (racemic) [Example 4, (rac)-l-O-Octadecyl-2-0-carbamoyl-glycerol-3-[2-(4-methyl-l-piperazinyl)ethyl]phosphate] | 100 | 0 | 6/6 | 20.2 ± 1.11 | 19.5 ± 0.60 | 236 | 16.5
3 | CCCCCCCCCCCCCCCCCCOCC(COP(=O)([O-])OCC[n+]1ccccc1)OC(N)=O (racemic) [Example 3 - (4), (rac)-1-O-0ctadecyl-2-O-carbamoyl-glycerol-3-[2-(1-pyridinio)ethyl]phosphate] |  |  |  |  |  | 536 | 37.5
4 | CCCCCCCCCCCCCCCCCCOCC(COP(=O)([O-])OCC[n+]1ccccc1)OC(=O)Nc1ccccc1 (racemic) [Example 2 - (4), (rac)-1-O-Octadecyl-2-O-phenylcarbamoyl-glycerol-3-[2-(l-pyridinio)ethyl]phosphate] |  |  |  |  |  | 117 | 7.0
